Assay results as given in US20260217701A1, “SELECTIVE BET INHIBITORS AND USES THEREOF” (Tay Therapeutics Limited, priority 2022, published 2026).
“And” between values parts separate entries of the source, which are not always exact repeats. Identical values can stand only once.

Test system: collagen-induced arthritis
Test: Collagen-induced arthritis (CIA) model: clinical scores and paw volume; as to Average animal paw volume percent change (%): reference of the scale not given here; as to animal paw volume percent change (%): reference of the scale not given here
Type: in vivo, Lewis rats
Conditions: for Average animal paw volume / Average animal paw volume percent change (%) / Animal paw volume percent change (%): group 3 CIA + Dexamethasone; for Animal paw volume percent change (%) / clinical score left forelimb / clinical score left hind limb / clinical score right forelimb / clinical score right hind limb / clinical score, score (all limbs) / Animal paw volume: individual animals; for Overall Clinical Score: individual animals 1-8; for Animal paw volume: Group 3 (CIA + Dexamethasone)
[1] = group 3 CIA+ Dexamethasone, Day 18
[2] = group 3 CIA+ Dexamethasone, Day 19
[3] = group 3 CIA+ Dexamethasone, Day 20

C[C@@H]1C[C@H]2[C@@H]3CCC4=CC(=O)C=C[C@]4(C)[C@@]3(F)[C@@H](O)C[C@]2(C)[C@@]1(O)C(=O)CO [Dexamethasone, dexamethasone]
Average animal paw volume (Day 0, L paw): 1.33 mL | Average animal paw volume percent change (%) (Day 0, L paw): 0.00% | Animal paw volume percent change (%) (Day 0, L paw): 0.00% | Average animal paw volume (Day 0, R paw): 1.33 mL | Average animal paw volume percent change (%) (Day 0, R paw): 0.00% | Animal paw volume percent change (%) (Day 0, R paw): 0.00% | Average detailed clinical score, left forelimb (Day 0, CIA): 0.00 | Average detailed clinical score, left hind limb (Day 0, CIA): 0.00 | Average detailed clinical score, right forelimb (Day 0, CIA): 0.00 | Average detailed clinical score, right hind limb (Day 0, CIA): 0.00 | Average detailed clinical score, score (Day 0, CIA): 0.00 | Average overall clinical score (Day 0, CIA): 0 | clinical score left forelimb (Day 0, CIA): 0 | clinical score left hind limb (Day 0, CIA): 0 | clinical score right forelimb (Day 0, CIA): 0 | clinical score right hind limb (Day 0, CIA): 0 | clinical score, score (all limbs) (Day 0, CIA): 0 | Overall Clinical Score (Day 0, CIA): 0 | Animal paw volume (Day 0, L paw): 1.35 mL and 1.31 mL and 1.39 mL and 1.33 mL and 1.30 mL (2×) and 1.34 mL and 1.36 mL | Animal paw volume (Day 0, R paw): 1.34 mL and 1.30 mL (2×) and 1.38 mL and 1.35 mL and 1.29 mL and 1.36 mL and 1.37 mL | Average animal paw volume (Day 6, L paw): 1.29 mL | Average animal paw volume percent change (%) (Day 6, L paw): -3.37% | Animal paw volume percent change (%) (Day 6, L paw): −2.97% and −1.53% and −3.61% and −3.02% and −3.09% and −3.08% and −4.12% and 5.51% | Average animal paw volume (Day 6, R paw): 1.29 mL | Average animal paw volume percent change (%) (Day 6, R paw): -3.26% | Animal paw volume percent change (%) (Day 6, R paw): −3.00% and 1.16% and −2.91% and −3.72% and −1.56% and −2.70% and −5.90% and −5.13% | Average detailed clinical score, left forelimb (Day 6, CIA): 0.00 | Average detailed clinical score, left hind limb (Day 6, CIA): 0.00 | Average detailed clinical score, right forelimb (Day 6, CIA): 0.00 | Average detailed clinical score, right hind limb (Day 6, CIA): 0.00 | Average detailed clinical score, score (Day 6, CIA): 0.00 | Average overall clinical score (Day 6, CIA): 0 | clinical score left forelimb (Day 6, CIA): 0 | clinical score left hind limb (Day 6, CIA): 0 | clinical score right forelimb (Day 6, CIA): 0 | clinical score right hind limb (Day 6, CIA): 0 | clinical score, score (all limbs) (Day 6, CIA): 0 | Overall Clinical Score (Day 6, CIA): 0 | Animal paw volume (Day 6, L paw): 1.31 mL and 1.29 mL (3×) and 1.34 mL and 1.28 mL | Animal paw volume (Day 6, R paw): 1.30 mL (3×) and 1.28 mL (2×) and 1.34 mL and 1.27 mL | Average animal paw volume (Day 12, L paw): 1.27 mL | Average animal paw volume percent change (%) (Day 12, L paw): -4.94% | Animal paw volume percent change (%) (Day 12, L paw): −10.41% and −7.66% and −1.44% and −3.40% and −1.54% and −6.54% and −3.00% and −5.51% | Average animal paw volume percent change (%) (Day 12, R paw): -5.21% | Animal paw volume percent change (%) (Day 12, R paw): −6.74% and −3.09% and 0.73% and −7.43% and −1.56% and −9.27% and −7.01% and −5.86% | Average detailed clinical score, left forelimb (Day 12, CIA): 0.00 | Average detailed clinical score, left hind limb (Day 12, CIA): 0.00 | Average detailed clinical score, right forelimb (Day 12, CIA): 0.00 | Average detailed clinical score, right hind limb (Day 12, CIA): 0.00 | Average detailed clinical score, score (Day 12, CIA): 0.00 | Average overall clinical score (Day 12, CIA): 0 | clinical score left forelimb (Day 12, CIA): 0 | clinical score left hind limb (Day 12, CIA): 0 | clinical score right forelimb (Day 12, CIA): 0 | clinical score right hind limb (Day 12, CIA): 0 | clinical score, score (all limbs) (Day 12, CIA): 0 | Overall Clinical Score (Day 12, CIA): 0 | Animal paw volume (Day 12, L paw): 1.37 mL and 1.28 mL (2×) and 1.30 mL and 1.29 mL | Animal paw volume (Day 12, R paw): 1.37 mL and 1.27 mL and 1.29 mL | Average animal paw volume (Day 13, L paw): 1.28 mL | Average animal paw volume percent change (%) (Day 13, L paw): -3.57% | Animal paw volume percent change (%) (Day 13, L paw): −8.92% and −5.36% and 0.72% and −3.02% and 0.00% and 4.23% and −2.25% and −5.51% | Average animal paw volume (Day 13, R paw): 1.28 mL | Average animal paw volume percent change (%) (Day 13, R paw): -4.08% | Animal paw volume percent change (%) (Day 13, R paw): −5.99% and −2.32% and 0.36% and −7.43% and −0.78% and −6.95% and −3.69% and 5.86% | Average detailed clinical score, left forelimb (Day 13, CIA): 0 | Average detailed clinical score, left hind limb (Day 13, CIA): 0 | Average detailed clinical score, right forelimb (Day 13, CIA): 0 | Average detailed clinical score, right hind limb (Day 13, CIA): 0 | Average detailed clinical score, score (Day 13, CIA): 0 | Average overall clinical score (Day 13, CIA): 0 | clinical score left forelimb (Day 13, CIA): 0 | clinical score left hind limb (Day 13, CIA): 0 | clinical score right forelimb (Day 13, CIA): 0 | clinical score right hind limb (Day 13, CIA): 0 | clinical score, score (all limbs) (Day 13, CIA): 0 | Overall Clinical Score (Day 13, CIA): 0 | Animal paw volume (Day 13, L paw): 1.40 mL and 1.29 mL (2×) and 1.30 mL and 1.31 mL | Animal paw volume (Day 13, R paw): 1.27 mL and 1.38 mL and 1.28 mL and 1.31 mL and 1.29 mL | Average animal paw volume (Day 14, L paw): 1.27 mL | Average animal paw volume percent change (%) (Day 14, L paw): -4.60% | Animal paw volume percent change (%) (Day 14, L paw): −8.18% and −5.36% and 0.00% and −4.53% and −1.54% and −5.00% and −3.75% and −8.46% | Average animal paw volume percent change (%) (Day 14, R paw): -5.07% | Animal paw volume percent change (%) (Day 14, R paw): −5.62% and −2.70% and 0.00% and −8.92% and −2.33% and −7.72% and −5.17% and −8.06% | Average detailed clinical score, left forelimb (Day 14, CIA): 0 | Average detailed clinical score, left hind limb (Day 14, CIA): 0 | Average detailed clinical score, right forelimb (Day 14, CIA): 0 | Average detailed clinical score, right hind limb (Day 14, CIA): 0 | Average detailed clinical score, score (Day 14, CIA): 0 | Average overall clinical score (Day 14, CIA): 0 | clinical score left forelimb (Day 14, CIA): 0 | clinical score left hind limb (Day 14, CIA): 0 | clinical score right forelimb (Day 14, CIA): 0 | clinical score right hind limb (Day 14, CIA): 0 | clinical score, score (all limbs) (Day 14, CIA): 0 | Overall Clinical Score (Day 14, CIA): 0 | Animal paw volume (Day 14, L paw): 1.39 mL and 1.27 mL and 1.28 mL and 1.29 mL | Animal paw volume (Day 14, R paw): 1.38 mL and 1.29 mL | Average animal paw volume percent change (%) (Day 15, L paw): −5.47% | Animal paw volume percent change (%) (Day 15, L paw): −8.92% and −7.28% and −2.17% | Average animal paw volume percent change (%) (Day 15, R paw): −5.41% | Animal paw volume percent change (%) (Day 15, R paw): −6.74% and −4.25% and 1.45% | Average detailed clinical score, left forelimb (Day 15, CIA): 0 | Average detailed clinical score, left hind limb (Day 15, CIA): 0 | Average detailed clinical score, right forelimb (Day 15, CIA): 0 | Average detailed clinical score, right hind limb (Day 15, CIA): 0 | Average detailed clinical score, score (Day 15, CIA): 0 | Average overall clinical score (Day 15, CIA): 0 | clinical score left forelimb (Day 15, CIA): 0 | clinical score left hind limb (Day 15, CIA): 0 | clinical score right forelimb (Day 15, CIA): 0 | clinical score right hind limb (Day 15, CIA): 0 | clinical score, score (all limbs) (Day 15, CIA): 0 | Overall Clinical Score (Day 15, CIA): 0 | Animal paw volume (Day 15, L paw): 1.36 mL and 1.28 mL and 1.33 mL and 1.27 mL | Animal paw volume (Day 15, R paw): 1.36 mL and 1.27 mL (2×) and 1.32 mL | Average animal paw volume (Day 18, L paw): 1.29 mL | Average animal paw volume percent change (%) (Day 18, L paw): −3.01% | Animal paw volume percent change (%) (Day 18, L paw): −5.20% and −6.51% and 4.33% | Average animal paw volume (Day 18, R paw): 1.29 mL | Average animal paw volume percent change (%) (Day 18, R paw): −3.14% | Animal paw volume percent change (%) (Day 18, R paw): 4.49% and −4.63% and 4.36% | Average detailed clinical score, left forelimb (Day 18, CIA): 0.00 | Average detailed clinical score, left hind limb (Day 18, CIA): 0.00 | Average detailed clinical score, right forelimb (Day 18, CIA): 0.00 | Average detailed clinical score, right hind limb (Day 18, CIA): 0.00 | Average detailed clinical score, score (Day 18, CIA): 0.00 | Average overall clinical score (Day 18, CIA): 0 | Overall Clinical Score (Day 18, CIA): 0 | Animal paw volume (Day 18, L paw): 1.28 mL and 1.45 mL and 1.31 mL and 1.29 mL and 1.34 mL and 1.30 mL | Animal paw volume (Day 18, R paw): 1.28 mL and 1.44 mL and 1.31 mL and 1.29 mL (2×) and 1.34 mL | Average animal paw volume (Day 19, L paw): 1.29 mL | Average animal paw volume percent change (%) (Day 19, L paw): −3.33% | Animal paw volume percent change (%) (Day 19, L paw): 5.20% and −6.90% | Average animal paw volume (Day 19, R paw): 1.28 mL | Average animal paw volume percent change (%) (Day 19, R paw): −3.57% | Animal paw volume percent change (%) (Day 19, R paw): −5.24% and −6.18% | Average detailed clinical score, left forelimb (Day 19, CIA): 0.00 | Average detailed clinical score, left hind limb (Day 19, CIA): 0.00 | Average detailed clinical score, right forelimb (Day 19, CIA): 0.00 | Average detailed clinical score, right hind limb (Day 19, CIA): 0.00 | Average detailed clinical score, score (Day 19, CIA): 0.00 | Average overall clinical score (Day 19, CIA): 0 | Overall Clinical Score (Day 19, CIA): 0 | Animal paw volume (Day 19, L paw): 1.28 mL (2×) and 1.44 mL and 1.30 mL (2×) and 1.33 mL | Animal paw volume (Day 19, R paw): 1.27 mL (2×) and 1.44 mL and 1.31 mL and 1.32 mL and 1.30 mL | Average animal paw volume (Day 21, L paw): 1.28 mL | Average animal paw volume percent change (%) (Day 21, L paw): −3.56% | Animal paw volume percent change (%) (Day 21, L paw): −6.32% and −6.90% | Average animal paw volume (Day 21, R paw): 1.29 mL | Average animal paw volume percent change (%) (Day 21, R paw): −3.51% | Animal paw volume percent change (%) (Day 21, R paw): −5.99% and −6.18% | Average detailed clinical score, left forelimb (Day 21, CIA): 0.00 | Average detailed clinical score, left hind limb (Day 21, CIA): 0.00 | Average detailed clinical score, right forelimb (Day 21, CIA): 0.00 | Average detailed clinical score, right hind limb (Day 21, CIA): 0.00 | Average detailed clinical score, score (Day 21, CIA): 0.00 | Average overall clinical score (Day 21, CIA): 0 | Overall Clinical Score (Day 21, CIA): 0 | Animal paw volume (Day 21, L paw): 1.43 mL and 1.31 mL (2×) and 1.30 mL (2×) | Animal paw volume (Day 21, R paw): 1.43 mL and 1.31 mL and 1.30 mL (2×) and 1.32 mL | clinical score left forelimb [1]: 0 | clinical score left hind limb [1]: 0 | clinical score right forelimb [1]: 0 | clinical score right hind limb [1]: 0 | clinical score, score (all limbs) [1]: 0 | clinical score left forelimb [2]: 0 | clinical score left hind limb [2]: 0 | clinical score right forelimb [2]: 0 | clinical score right hind limb [2]: 0 | clinical score, score (all limbs) [2]: 0 | clinical score left forelimb [3]: 0 | clinical score left hind limb [3]: 0 | clinical score right forelimb [3]: 0 | clinical score right hind limb [3]: 0 | clinical score, score (all limbs) [3]: 0
